In publication PMC5218480 (PLoS ONE, 2017):

Test system: MV-4-11 cells
Assay: Gene expression microarray analysis (Affymetrix PrimeView) and GSEA
Type: cell-based, human
Parameters: RFU PODN (11730768_x_at) / Fold change /veh PODN (11730768_x_at) / RFU LINC00158 (11744669_a_at) / Fold change /veh LINC00158 (11744669_a_at) / RFU DUSP10 (11751237_a_at) / Fold change /veh DUSP10 (11751237_a_at) / RFU ID3 (11757404_x_at) / Fold change /veh ID3 (11757404_x_at) / RFU PLEKHG5 (11737974_s_at) / Fold change /veh PLEKHG5 (11737974_s_at) / RFU LRRC4B (11730491_at) / Fold change /veh LRRC4B (11730491_at) / RFU GIMAP4 (11747438_a_at) / Fold change /veh GIMAP4 (11747438_a_at) / RFU KRT8 (11758183_x_at) / Fold change /veh KRT8 (11758183_x_at) / RFU CNN1 (11734310_a_at) / Fold change /veh CNN1 (11734310_a_at) / RFU VPS37D (11726825_at) / Fold change /veh VPS37D (11726825_at) / RFU C10orf10 (11716522_x_at) / Fold change /veh C10orf10 (11716522_x_at) / RFU KIR2DL2 /// KIR2DL4 /// KIR2DL5A /// KIR2DL5B /// KIR2DS1 /// KIR2DS2 /// KIR2DS3 /// KIR2DS4 /// KIR3DL3 /// KIR3DL3 /// KIR3DS1 (11738374_at) / Fold change /veh KIR2DL2 /// KIR2DL4 /// KIR2DL5A /// KIR2DL5B /// KIR2DS1 /// KIR2DS2 /// KIR2DS3 /// KIR2DS4 /// KIR3DL3 /// KIR3DL3 /// KIR3DS1 (11738374_at) / RFU C1QL1 (11718748_at) / Fold change /veh C1QL1 (11718748_at) / RFU TMPRSS4 (11747572_a_at) / Fold change /veh TMPRSS4 (11747572_a_at) / RFU HAMP (11756126_x_at) / Fold change /veh HAMP (11756126_x_at) / RFU RNFT2 (11725882_a_at) / Fold change /veh RNFT2 (11725882_a_at) / RFU NR4A2 (11747474_a_at) / Fold change /veh NR4A2 (11747474_a_at) / RFU ABCC12 (11746883_a_at) / Fold change /veh ABCC12 (11746883_a_at) / RFU TMEM136 (11760407_x_at) / Fold change /veh TMEM136 (11760407_x_at) / RFU CLDN22 /// WWC2 (11732394_at) / Fold change /veh CLDN22 /// WWC2 (11732394_at) / RFU HLA-DPB1 (11760878_x_at) / Fold change /veh HLA-DPB1 (11760878_x_at) / RFU SPINT1 (11716480_a_at) / Fold change /veh SPINT1 (11716480_a_at) / RFU GAP43 (11754022_s_at) / Fold change /veh GAP43 (11754022_s_at) / RFU A4GNT (11735810_at) / Fold change /veh A4GNT (11735810_at) / RFU PRB3 (11715151_x_at) / Fold change /veh PRB3 (11715151_x_at) / RFU TUBB4B (11761932_at) / Fold change /veh TUBB4B (11761932_at) / RFU CAPN14 (11732068_a_at) / Fold change /veh CAPN14 (11732068_a_at) / RFU TMCC2 (11721928_a_at) / Fold change /veh TMCC2 (11721928_a_at) / RFU IRGQ (11745062_a_at) / Fold change /veh IRGQ (11745062_a_at) / RFU FAM174B (11720279_a_at) / Fold change /veh FAM174B (11720279_a_at) / RFU TMPRSS4 (11748680_a_at) / Fold change /veh TMPRSS4 (11748680_a_at) / RFU FAM212B (11763350_a_at) / Fold change /veh FAM212B (11763350_a_at) / RFU PLEKHG5 (11743358_a_at) / Fold change /veh PLEKHG5 (11743358_a_at) / RFU ZSCAN30 (11745921_a_at) / Fold change /veh ZSCAN30 (11745921_a_at) / RFU CMKLR1 (11741424_a_at) / Fold change /veh CMKLR1 (11741424_a_at) / RFU LOC101060620 /// MAPK8IP1 (11723275_at) / Fold change /veh LOC101060620 /// MAPK8IP1 (11723275_at) / RFU SPTSSB (11747773_x_at) / Fold change /veh SPTSSB (11747773_x_at) / RFU PRSS12 (11739890_at) / Fold change /veh PRSS12 (11739890_at) / RFU BIN1 (11741810_x_at) / Fold change /veh BIN1 (11741810_x_at) / RFU WNT11 (11732464_a_at) / Fold change /veh WNT11 (11732464_a_at) / RFU C10orf10 (11716521_a_at) / Fold change /veh C10orf10 (11716521_a_at) / RFU C5orf56 (11738089_at) / Fold change /veh C5orf56 (11738089_at) / RFU CYB561 (11721691_x_at) / Fold change /veh CYB561 (11721691_x_at) / RFU ANKRD19P (11752326_a_at) / Fold change /veh ANKRD19P (11752326_a_at) / RFU OR2T12 /// OR2T33 /// OR2T8 (11738714_s_at) / Fold change /veh OR2T12 /// OR2T33 /// OR2T8 (11738714_s_at) / RFU VCAN (11748164_a_at) / Fold change /veh VCAN (11748164_a_at) / RFU JSRP1 (11732532_at) / Fold change /veh JSRP1 (11732532_at) / RFU KRTAP10-11 (11738290_x_at) / Fold change /veh KRTAP10-11 (11738290_x_at) / RFU MYO3A (11730013_a_at) / Fold change /veh MYO3A (11730013_a_at) / RFU EBF3 (11725865_a_at) / Fold change /veh EBF3 (11725865_a_at) / RFU CAMK2N1 (11719241_x_at) / Fold change /veh CAMK2N1 (11719241_x_at) / RFU C5orf56 (11738088_a_at) / Fold change /veh C5orf56 (11738088_a_at) / RFU OLFML3 (11715873_a_at) / Fold change /veh OLFML3 (11715873_a_at) / RFU LOC100653217 /// NTM (11731650_a_at) / Fold change /veh LOC100653217 /// NTM (11731650_a_at) / RFU MAPK11 (11762145_a_at) / Fold change /veh MAPK11 (11762145_a_at) / RFU FIZ1 (11724087_x_at) / Fold change /veh FIZ1 (11724087_x_at) / RFU OASL (11726364_x_at) / Fold change /veh OASL (11726364_x_at) / RFU SOX15 (11748057_x_at) / Fold change /veh SOX15 (11748057_x_at) / RFU CD79A (11719716_a_at) / Fold change /veh CD79A (11719716_a_at) / RFU HIST1H1D (11736915_at) / Fold change /veh HIST1H1D (11736915_at) / RFU CASKIN2 (11723855_a_at) / Fold change /veh CASKIN2 (11723855_a_at) / RFU LOC730098 (11760151_x_at) / Fold change /veh LOC730098 (11760151_x_at) / RFU OR4N2 (11742367_at) / Fold change /veh OR4N2 (11742367_at) / RFU PRRT2 (11749266_a_at) / Fold change /veh PRRT2 (11749266_a_at) / RFU SNX32 (11753110_a_at) / Fold change /veh SNX32 (11753110_a_at) / RFU CDHR5 (11726645_a_at) / Fold change /veh CDHR5 (11726645_a_at) / RFU RCAN1 (11760418_a_at) / Fold change /veh RCAN1 (11760418_a_at) / RFU FAM167A (11723789_a_at) / Fold change /veh FAM167A (11723789_a_at) / RFU FAM26E (11764081_at) / Fold change /veh FAM26E (11764081_at) / RFU ISYNA1 (11749810_s_at) / Fold change /veh ISYNA1 (11749810_s_at) / RFU ACY1 (11761880_at) / Fold change /veh ACY1 (11761880_at) / RFU 11764098_at / Fold change /veh 11764098_at / RFU SAMD14 (11745864_x_at) / Fold change /veh SAMD14 (11745864_x_at) / RFU NPB (11741838_a_at) / Fold change /veh NPB (11741838_a_at) / RFU TMPRSS6 (11731388_a_at) / Fold change /veh TMPRSS6 (11731388_a_at) / RFU KRTAP10-2 (11738614_at) / Fold change /veh KRTAP10-2 (11738614_at) / RFU ARHGAP8 /// PRR5-ARHGAP8 (11727945_x_at) / Fold change /veh ARHGAP8 /// PRR5-ARHGAP8 (11727945_x_at) / RFU KRTAP5-7 /// NADSYN1 (11734609_at) / Fold change /veh KRTAP5-7 /// NADSYN1 (11734609_at) / RFU RASL12 (11751679_a_at) / Fold change /veh RASL12 (11751679_a_at) / RFU CDKN2B (11736163_a_at) / Fold change /veh CDKN2B (11736163_a_at) / RFU PRF1 (11729649_at) / Fold change /veh PRF1 (11729649_at) / RFU, ZNF638 /// ZNF638-IT1 / Fold change vs veh, ZNF638 /// ZNF638-IT1 / RFU, PANK3 / Fold change vs veh, PANK3 / RFU, SH3YL1 / Fold change vs veh, SH3YL1 / RFU, ZEB2 / Fold change vs veh, ZEB2 / RFU, NRIP1 / Fold change vs veh, NRIP1 / RFU, PTTG1IP / Fold change vs veh, PTTG1IP / RFU, CAPN2 / Fold change vs veh, CAPN2 / RFU, MED14 / Fold change vs veh, MED14 / RFU, SNORA58 / Fold change vs veh, SNORA58 / RFU, C1orf63 / Fold change vs veh, C1orf63 / RFU, LRRFIP1 / Fold change vs veh, LRRFIP1 / RFU, NDUFAF7 / Fold change vs veh, NDUFAF7 / RFU, SLC12A2 / Fold change vs veh, SLC12A2 / RFU, IBTK / Fold change vs veh, IBTK / RFU, ESF1 / Fold change vs veh, ESF1 / Fold change vs veh, TMEM50B / RFU, TAOK1 / Fold change vs veh, TAOK1 / RFU, ACBD3 / Fold change vs veh, ACBD3 / RFU, TMA16 / Fold change vs veh, TMA16 / RFU, RWDD3 / Fold change vs veh, RWDD3 / RFU, BCAT1 / Fold change vs veh, BCAT1 / RFU, EDEM3 / Fold change vs veh, EDEM3 / RFU, TMEM33 / Fold change vs veh, TMEM33 / RFU, WDR75 / Fold change vs veh, WDR75 / RFU, AHCTF1 / Fold change vs veh, AHCTF1 / RFU, TFRC / Fold change vs veh, TFRC / RFU, ZDHHC17 / Fold change vs veh, ZDHHC17 / RFU, NOM1 / Fold change vs veh, NOM1 / RFU, ARL8B / Fold change vs veh, ARL8B / RFU, ZBTB11 / Fold change vs veh, ZBTB11 / RFU, TAMM41 / Fold change vs veh, TAMM41 / RFU, KIAA1704 /// LOC100996395 / Fold change vs veh, KIAA1704 /// LOC100996395 / RFU, ING1 / Fold change vs veh, ING1 / RFU, TRMT61B / Fold change vs veh, TRMT61B / RFU, FUBP3 / Fold change vs veh, FUBP3 / RFU, TP53 / Fold change vs veh, TP53 / RFU, TNKS2 / Fold change vs veh, TNKS2 / RFU, ZFP14 / Fold change vs veh, ZFP14 / RFU, ACTR2 / Fold change vs veh, ACTR2 / RFU, PPP3R1 / Fold change vs veh, PPP3R1 / RFU, PIK3R1 / Fold change vs veh, PIK3R1 / RFU, HNRNPA1 / Fold change vs veh, HNRNPA1 / RFU, RNF170 / Fold change vs veh, RNF170 / RFU, ZNF28 / Fold change vs veh, ZNF28 / RFU, RNGTT / Fold change vs veh, RNGTT / RFU, OGT / Fold change vs veh, OGT / RFU, BRD1 / Fold change vs veh, BRD1 / RFU, MARS / Fold change vs veh, MARS / RFU, ZNF655 / Fold change vs veh, ZNF655 / RFU, FAHD1 / Fold change vs veh, FAHD1 / RFU, BDP1 / Fold change vs veh, BDP1 / RFU, LRRCC1 / Fold change vs veh, LRRCC1 / RFU, ARID1A / Fold change vs veh, ARID1A / RFU, ZNF146 / Fold change vs veh, ZNF146 / RFU, ZNF330 / Fold change vs veh, ZNF330 / RFU, GPN3 / Fold change vs veh, GPN3 / RFU, C9orf123 / Fold change vs veh, C9orf123 / RFU, N4BP2L2 / Fold change vs veh, N4BP2L2 / RFU, ARFIP1 / Fold change vs veh, ARFIP1 / RFU, FAM179B / Fold change vs veh, FAM179B / RFU, BCL10 / Fold change vs veh, BCL10 / RFU, UHRF1BP1L / Fold change vs veh, UHRF1BP1L / RFU, BET1 / Fold change vs veh, BET1 / RFU, CNOT2 / Fold change vs veh, CNOT2 / RFU, ZNF268 / Fold change vs veh, ZNF268 / Fold change vs veh, ZNF507 / RFU, DGCR2 / Fold change vs veh, DGCR2 / RFU, WDSUB1 / Fold change vs veh, WDSUB1 / Fold change vs veh, HSP90B1 /// MIR3652 / RFU, ADSS / Fold change vs veh, ADSS / RFU, GK / Fold change vs veh, GK / RFU, ZNF148 / Fold change vs veh, ZNF148 / RFU, TAF9 / Fold change vs veh, TAF9 / RFU, SLC1A5 / Fold change vs veh, SLC1A5 / RFU, SLMO2 / Fold change vs veh, SLMO2 / RFU, ABCC4 / Fold change vs veh, ABCC4 / RFU, LOC101060439 /// RAP1B / Fold change vs veh, LOC101060439 /// RAP1B / RFU, RFX7 / Fold change vs veh, RFX7 / RFU, GTPBP10 / Fold change vs veh, GTPBP10 / RFU, CNEP1R1 / Fold change vs veh, CNEP1R1 / RFU, BIVM-ERCC5 /// ERCC5 / Fold change vs veh, BIVM-ERCC5 /// ERCC5 / RFU, ILF3 / Fold change vs veh, ILF3 / RFU 11762660_at / Fold change /veh 11762660_at / RFU VCAN (11757783_s_at) / Fold change /veh VCAN (11757783_s_at) / RFU DDX43 (11728927_at) / Fold change /veh DDX43 (11728927_at) / RFU KRT8 (11758188_x_at) / Fold change /veh KRT8 (11758188_x_at) / RFU NKD1 (11759106_at) / Fold change /veh NKD1 (11759106_at) / RFU SRD5A1 (11742802_a_at) / Fold change /veh SRD5A1 (11742802_a_at) / RFU TPSAB1 /// TPSB2 (11721975_s_at) / Fold change /veh TPSAB1 /// TPSB2 (11721975_s_at) / RFU GSTM3 (11746129_a_at) / Fold change /veh GSTM3 (11746129_a_at) / RFU IL23R (11737362_x_at) / Fold change /veh IL23R (11737362_x_at) / RFU TMEM51 (11727254_a_at) / Fold change /veh TMEM51 (11727254_a_at) / RFU PIWIL2 (11732686_x_at) / Fold change /veh PIWIL2 (11732686_x_at) / RFU ORM1 (11744905_x_at) / Fold change /veh ORM1 (11744905_x_at) / RFU CCDC152 (11743942_at) / Fold change /veh CCDC152 (11743942_at) / RFU ECM1 (11717891_a_at) / Fold change /veh ECM1 (11717891_a_at) / RFU IL23R (11748794_a_at) / Fold change /veh IL23R (11748794_a_at) / RFU TNFAIP8L3 (11732012_x_at) / Fold change /veh TNFAIP8L3 (11732012_x_at) / RFU MBOAT4 (11741988_at) / Fold change /veh MBOAT4 (11741988_at) / RFU 11764193_at / Fold change /veh 11764193_at / RFU TMEM53 (11763286_at) / Fold change /veh TMEM53 (11763286_at) / RFU MAGEB2 (11727129_at) / Fold change /veh MAGEB2 (11727129_at) / RFU TMEM200A (11744735_a_at) / Fold change /veh TMEM200A (11744735_a_at) / RFU CCDC152 (11751479_a_at) / Fold change /veh CCDC152 (11751479_a_at) / RFU FAM211A (11726209_a_at) / Fold change /veh FAM211A (11726209_a_at) / RFU RGS16 (11746705_a_at) / Fold change /veh RGS16 (11746705_a_at) / RFU VCAN (11755009_s_at) / Fold change /veh VCAN (11755009_s_at) / RFU RHOB (11743442_s_at) / Fold change /veh RHOB (11743442_s_at) / RFU RGS16 (11720943_a_at) / Fold change /veh RGS16 (11720943_a_at) / RFU RGS16 (11720944_at) / Fold change /veh RGS16 (11720944_at) / RFU, VPS4B / Fold change vs veh, VPS4B / RFU, CREB1 / Fold change vs veh, CREB1 / RFU, DNAJC13 / Fold change vs veh, DNAJC13 / RFU, GNAQ / Fold change vs veh, GNAQ / RFU, CDK5R1 / Fold change vs veh, CDK5R1 / RFU, ZRANB3 / Fold change vs veh, ZRANB3 / RFU, CUL4A / Fold change vs veh, CUL4A / RFU, CCNY / Fold change vs veh, CCNY / RFU, UFL1 / Fold change vs veh, UFL1 / RFU, COG3 / Fold change vs veh, COG3 / RFU, DIAPH2 / Fold change vs veh, DIAPH2 / RFU, SKA2 / Fold change vs veh, SKA2 / RFU, AFF3 / Fold change vs veh, AFF3 / RFU, LMF1 / Fold change vs veh, LMF1 / RFU, IPO11 / Fold change vs veh, IPO11 / RFU, DFFB / Fold change vs veh, DFFB / RFU, FOXP1 / Fold change vs veh, FOXP1 / RFU, CARD8 / Fold change vs veh, CARD8 / RFU, STRN3 / Fold change vs veh, STRN3 / RFU, ADK / Fold change vs veh, ADK / RFU, RASSF2 / Fold change vs veh, RASSF2 / RFU, WIPF1 / Fold change vs veh, WIPF1 / RFU, LARP1B / Fold change vs veh, LARP1B / RFU, RASA1 / Fold change vs veh, RASA1 / RFU, RB1 / Fold change vs veh, RB1 / RFU, PPFIA1 / Fold change vs veh, PPFIA1 / RFU, MAT2A / Fold change vs veh, MAT2A / RFU, CCT5 / Fold change vs veh, CCT5 / RFU, WDR92 / Fold change vs veh, WDR92 / RFU, CUX1 / Fold change vs veh, CUX1 / RFU, TTC7A / Fold change vs veh, TTC7A / RFU, TMEM135 / Fold change vs veh, TMEM135 / RFU, DEPTOR / Fold change vs veh, DEPTOR / RFU, CPM / Fold change vs veh, CPM / RFU, DNAJB6 / Fold change vs veh, DNAJB6 / RFU, CACNA2D3 / Fold change vs veh, CACNA2D3 / RFU, DTX4 / Fold change vs veh, DTX4 / RFU, TFCP2 / Fold change vs veh, TFCP2 / RFU, GMCL1 /// GMCL1P1 / Fold change vs veh, GMCL1 /// GMCL1P1 / RFU, AEBP2 / Fold change vs veh, AEBP2 / RFU, SNHG1 /// SNORD22 /// SNORD25 /// SNORD26 /// SNORD27 /// SNORD28 /// SNORD29 /// SNORD31 / Fold change vs veh, SNHG1 /// SNORD22 /// SNORD25 /// SNORD26 /// SNORD27 /// SNORD28 /// SNORD29 /// SNORD31 / Fold change (Aza/veh), C12orf56 (ProbeSet 11735607_a_at) / Fold change (ACY-1035/veh), C12orf56 (ProbeSet 11735607_a_at) / Fold change (Aza/veh), FGFR1OP (ProbeSet 11751329_s_at) / Fold change (ACY-1035/veh), FGFR1OP (ProbeSet 11751329_s_at) / Fold change (Aza/veh), VPS36 (ProbeSet 11739960_a_at) / Fold change (ACY-1035/veh), VPS36 (ProbeSet 11739960_a_at) / RFU SYPL1 (11715823_x_at) / Fold change /veh SYPL1 (11715823_x_at) / RFU IGFBP7 (11715501_s_at) / Fold change /veh IGFBP7 (11715501_s_at) / RFU REEP3 (11722064_at) / Fold change /veh REEP3 (11722064_at) / RFU IGLL1 (11728026_x_at) / Fold change /veh IGLL1 (11728026_x_at): dose or concentration left out as unconfirmed
Settings: ProbeSet 11720566_at; LIST D

Nc1ccc(-c2cccs2)cc1NC(=O)c1ccc2c(c1)cc(C1CC1)n2CCN1CCOCC1 [ACY-1035]
Fold change vs veh, BCAT1: 0.85
